Measurements published in PubChem BioAssay AID2765 (Broad Institute, 2010).
Active and inactive are the calls of the source.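 The calls were made as follows: active = half-maximal concentration for the rise in caspase light signal at or below ten times the top tested dose; inconclusive = flat fit between 30% and 70% activity, or unreliable curve fit; inactive = the rest.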

System: MEF A1-2A-BIM cells, caspase 3/7 luminescence, 3 h
Experiment: inducers of caspase signal in A1-dependent MEFs – cell-based, luminescence, retest, A1 inhibitor project, dose response (AID 2765)

| SMILES | EC50 |
| --- | --- |
| COC(=O)CN(c1ccc(OC)c(OC)c1)S(C)(=O)=O | > 35 µM (inactive) |
| CCOC(=O)C1=NOC(COc2ccccc2C=O)C1 (stereo not drawn) | > 35 µM (inactive) |
| CCOC(=O)Cc1csc(/N=C/c2c(O)n(-c3ccc(C)c(C)c3)c(=O)c3ccccc23)n1 | 9.23 µM |
| COc1ccc(S(=O)(=O)N2CCCCC2C)cc1 (stereo not drawn) | > 35 µM (inactive) |
| Nc1nonc1-n1nnc(C(=O)N/N=C/c2ccc(Br)cc2)c1CN1CCOCC1 | > 35 µM (inactive) |
| C=C1C(=O)O[C@@H]2C[C@@H](C)[C@@H]3C=CC(=O)[C@@]3(C)[C@@H](OC(C)=O)[C@H]12 | > 35 µM (inactive) |
| CC1=CC(=O)C(C(C)C)=C/C1=N/OS(=O)(=O)c1ccccc1 | 9.28 µM |
| CN(C)CCCN(C(=O)c1ccc([N+](=O)[O-])s1)c1nc2cc3c(cc2s1)OCCO3 | > 16 µM (inactive) |
| COc1ccc2c(c1)CCc1c(C(=O)Nc3cc(C)n(Cc4ccc(Cl)cc4)n3)noc1-2 | 15 µM |
| Cc1c(C(=O)O)sc2nc(-c3cccs3)cc(C(F)(F)F)c12 | > 35 µM (inactive) |
| O=C(Nc1ccc(Cl)cc1Cl)c1cccc(N2C(=O)C=CC2=O)c1 | > 35 µM (inactive) |
| O=C(O)CCN1CCc2ccccc2C1c1ccncc1 (stereo not drawn) | > 35 µM (inactive) |
| CCCCCCCC/C=C\CCCCCCCC(=O)O | > 35 µM (inactive) |
| CC(C)CCN1NC2(CCCC(C)C2)NC1=S (stereo not drawn) | > 35 µM (inactive) |
| CN(C)c1ccc(NC(=O)C2CCCN(S(=O)(=O)c3ccccc3)C2)cc1 (stereo not drawn) | > 35 µM (inactive) |
| O=C(O)CN1C(=O)C2C3CC(C2C1=O)C1C(c2ccccc2)c2sc(=O)[nH]c2SC31 (stereo not drawn) | > 35 µM (inactive) |
| CCOC(=O)COc1ccccc1/C=C\[N+](=O)[O-] | 5.85 µM |
| CSc1ccccc1NC(=O)CCn1c(=O)sc2ccccc21 | > 35 µM (inactive) |
| CC(C)Oc1ccccc1C(=O)NC(CO)C(=O)O (stereo not drawn) | > 35 µM (inactive) |

| SMILES | EC50 |
| --- | --- |
| Oc1ccc(/C=N/N2CCN(C3c4ccccc4-c4ccccc43)CC2)cc1O | > 35 µM (inactive) |
| Cc1ccc(-n2nc3c(=O)n(C(C)C(=O)NCc4ccccc4Cl)nc(C)c3c2C)cc1 (stereo not drawn) | > 35 µM (inactive) |
| COc1ccc(NC(=O)/C=C/C(=O)O)c([N+](=O)[O-])c1 | > 35 µM (inactive) |
| COc1cc(/C=C(/C#N)C(=O)NCCc2c[nH]c3ccccc23)ccc1OCc1ccccc1F | > 35 µM (inactive) |
| COC(=O)Cn1cc(C(=O)C2CC2)c2ccccc21 | > 35 µM (inactive) |
| COc1ccccc1N1CCN(C(=O)c2ccc(C(C)(C)C)cc2)CC1 | > 35 µM (inactive) |
| Cc1cc(C(=O)Nc2cccc3c2O[C@@H](CN(C)S(=O)(=O)c2ccccc2)[C@H](C)CN([C@@H](C)CO)C3=O)n(C)n1 | > 35 µM (inactive) |
| COc1ccc2c(c1)c(=O)c(C(=O)c1ccc(F)cc1)cn2CC(=O)Nc1ccc(F)cc1 | > 35 µM (inactive) |
| Cc1nnc(SCC(=O)NN2C(=O)NC3(CCCCC3)C2=O)s1 | > 35 µM (inactive) |
| CO/N=C/C(C#N)=C/c1cc(C(=O)c2ccccc2)cn1C | > 35 µM (inactive) |
| C[C@]12CC[C@H](O)C[C@H]1CC[C@@H]1[C@@H]2CC[C@]2(C)[C@@H](C3=CC(=O)OC3)CC[C@]12O | > 35 µM (inactive) |
| O=C(C1=NN[C@@H]2C(=O)N(Cc3ccccc3)C(=O)[C@H]12)c1ccc(F)cc1 | > 35 µM (inactive) |
| CC(=O)Nc1ccc(C(=O)CN2C(=O)NC3(CCCc4ccccc43)C2=O)c(F)c1 (stereo not drawn) | > 35 µM (inactive) |
| FC(F)(F)c1ccc(Sc2n[nH]c(C(F)(F)F)n2)nc1 | > 35 µM (inactive) |
| CN(Cc1ccc(F)cc1)C(=O)CNC(=O)C1CCCCC1 | > 35 µM (inactive) |
| COc1cccc(-c2cc(C(F)(F)F)c(C#N)c(=O)[nH]2)c1 | > 35 µM (inactive) |
| CCOC(=O)CSc1nnc(Cc2ccc(OC)cc2)n1-c1ccccc1 | > 35 µM (inactive) |
| O=C(/C=C/c1cccc(Cl)c1)c1ccc([N+](=O)[O-])o1 | > 35 µM (inactive) |
| CC(=O)N1CCN(C2c3cccc4cccc(c34)C2NS(=O)(=O)c2ccccc2)CC1 (stereo not drawn) | > 35 µM (inactive) |
